# Laboratory results from US10246456B2, “IRAK4 inhibiting agents” (BIOGEN MA INC., priority 2014, dated 2019).
# Experiments:
# IRAK4 = IRAK4 (Homo sapiens (Human), UniProt Q9NWZ3); assay: IRAK-4 AlphaScreen biochemical kinase assay; settings: 1 nM IRAK4, 1 mM ATP, 3.5 h at RT
# How it was run: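 AlphaScreen read-out: streptavidin beads bind the biotinylated peptide and protein A beads bind the anti-phosphothreonine antibody, so energy transfer reports phosphorylation of the peptide. The kinase is human IRAK-4.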
# IL-6 in A549 cells = assay: Cell-based IL-6 ELISA assay in IL-1beta stimulated A549 cells; settings: 2 ng/ml human IL-1beta overnight
# How it was run: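 A549 cells (2.5×10^4/well, DMEM/10% FBS) pretreated 30 min at 37 C with compound, 10-point serial dilution from 10 uM, then stimulated overnight with 2 ng/ml human IL-1beta. Secreted IL-6 in supernatant quantified by human IL-6 ELISA.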
# Sequence of IRAK4 (Q9NWZ3 whole entry, species assumed): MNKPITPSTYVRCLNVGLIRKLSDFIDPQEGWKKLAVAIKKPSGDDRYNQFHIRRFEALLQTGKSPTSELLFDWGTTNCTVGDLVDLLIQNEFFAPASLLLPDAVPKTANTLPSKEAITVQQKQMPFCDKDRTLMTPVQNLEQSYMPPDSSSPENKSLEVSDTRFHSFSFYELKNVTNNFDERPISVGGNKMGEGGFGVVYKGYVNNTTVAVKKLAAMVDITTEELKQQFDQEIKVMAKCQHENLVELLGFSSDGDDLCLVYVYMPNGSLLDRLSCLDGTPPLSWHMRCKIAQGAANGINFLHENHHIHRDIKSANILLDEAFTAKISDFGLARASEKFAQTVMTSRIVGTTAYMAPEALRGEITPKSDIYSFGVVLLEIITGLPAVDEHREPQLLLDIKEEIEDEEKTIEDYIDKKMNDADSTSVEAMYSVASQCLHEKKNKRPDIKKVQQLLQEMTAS
SMILES,IC50 (IRAK4) [nM],EC50 (IL-6 in A549 cells) [nM]
"CCC[C@H](N)c1cccc(-c2cc(CO)c3cnn(-c4cccc(CO)n4)c3c2)n1 [Example 492, (S)-(6-(6-(1-aminobutyl)pyridin-2-yl)-1-(6-(hydroxymethyl)pyridin-2-yl)-1H-indazol-4-yl)methanol]",< 100,≤ 1000
"CCC[C@H](N)c1cccc(-c2cc(Cl)c3cnn(-c4cccc(CO)n4)c3c2)n1 [Example 490, (S)-(6-(6-(6-(1-aminobutyl)pyridin-2-yl)-4-chloro-1H-indazol-1-yl)pyridin-2-yl)methanol]",< 100,≤ 1000
"C[C@H](N)c1cccc(-c2cc(-c3cnn(C(F)(F)F)c3)c3cnn(-c4cccc(CO)n4)c3c2)n1 [Example 376, (S)-(6-(6-(6-(1-aminoethyl)pyridin-2-yl)-4-(1-(trifluoromethyl)-1H-pyrazol-4-yl)-1H-indazol-1-yl)pyridin-2-yl)methanol]",< 100,≤ 1000
"CCOc1cc(-c2cccc([C@@H](N)CCC(F)(F)F)n2)cc2c1cnn2-c1cccc(CO)n1 [Example 510, (S)-(6-(6-(6-(1-amino-4,4,4-trifluorobutyl)pyridin-2-yl)-4-ethoxy-1H-indazol-1-yl)pyridin-2-yl)methanol]",< 100,≤ 1000
"CCC[C@H](N)c1cccc(-c2cc(OC(C)C)c3cnn(-c4cccc(CO)n4)c3c2)n1 [Example 483, (6-{6-[6-((S)-1-Amino-butyl)-pyridin-2-yl]-4-isopropoxy-indazol-1-yl}-pyridin-2-yl)-methanol]",< 100,≤ 1000
"CCC[C@H](N)c1cccc(-c2cc(N3CCC(C(=O)O)C3)c3cnn(-c4cccc(CO)n4)c3c2)n1 (stereo partly drawn) [Example 341, 1-(6-(6-((S)-1-aminobutyl)pyridin-2-yl)-1-(6-(hydroxymethyl)pyridin-2-yl)-1H-indazol-4-yl)pyrrolidine-3-carboxylic acid]",< 100,≤ 1000
"Cc1nnc(-c2cc(-c3cccc([C@H](C)N)n3)cc3c2cnn3-c2cccc(CO)n2)s1 [Example 362, (S)-(6-(6-(6-(1-aminoethyl)pyridin-2-yl)-4-(5-methyl-1,3,4-thiadiazol-2-yl)-1H-indazol-1-yl)pyridin-2-yl)methanol]",< 100,≤ 1000
"CCC[C@H](N)c1cccc(-c2cc(NCC(C)(C)CCl)c3cnn(-c4cccc(CO)n4)c3c2)n1 [Example 344, (S)-(6-(6-(6-(1-aminobutyl)pyridin-2-yl)-4-((3-chloro-2,2-dimethylpropyl)amino)-1H-indazol-1-yl)pyridin-2-yl)methanol]",< 100,≤ 1000
